Experimental data published in ChEMBL document CHEMBL1140254, “A novel [99mTc[triple bond]N]2+ complex of metronidazole xanthate as a potential agent for targeting hypoxia” (Bioorg Med Chem Lett, 2005).

How the values were obtained:
Mus musculus [1] = species on record: Mus musculus; test: Tumor/blood ratio of the label compound in mice 30 min after post injection; assay type: functional
Mus musculus [2] = species on record: Mus musculus; test: Tumor/blood ratio of the label compound in mice 60 min after post injection; assay type: functional
Mus musculus [3] = species on record: Mus musculus; test: Tumor/muscle ratio of the label compound in mice 30 min after post injection; assay type: functional, Muscle tissue
Mus musculus [4] = species on record: Mus musculus; test: Tumor/muscle ratio of the label compound in mice 60 min after post injection; assay type: functional, Muscle tissue
Mus musculus [5] = species on record: Mus musculus; test: Tumor/muscle ratio of the label compound in mice 180 min after post injection; assay type: functional, Muscle tissue
[6] = Biodistribution of the labeled compound in mice kidney 60 min after post-injection; assay type: ADME, organism-based; details: mouse, in vivo, 1 h
[7] = Biodistribution of the labeled compound in mice liver 180 min after post-injection; assay type: ADME, organism-based; details: mouse, in vivo, 3 h
[8] = Biodistribution of the labeled compound in mice lungs 180 min after post-injection; assay type: ADME, organism-based, Lung; details: mouse, in vivo, 3 h
[9] = Biodistribution of the labeled compound in mice spleen 30 min after post-injection; assay type: ADME, organism-based; details: mouse, in vivo, 0.5 h
[10] = Biodistribution of the labeled compound in mice spleen 60 min after post-injection; assay type: ADME, organism-based; details: mouse, in vivo, 1 h
[11] = Biodistribution of the labeled compound in mice int +GB 30 min after post-injection; assay type: ADME, organism-based; details: mouse, in vivo, 0.5 h
[12] = Biodistribution of the labeled compound in mice int+GB 180 min after post-injection; assay type: ADME, organism-based; details: mouse, in vivo, 3 h
[13] = Biodistribution of the labeled compound in mice kidney 180 min after post-injection; assay type: ADME, organism-based; details: mouse, in vivo, 3 h
[14] = Biodistribution of the labeled compound in mice muscle 180 min after post-injection; assay type: ADME, organism-based, Muscle tissue; details: mouse, in vivo, 3 h
[15] = Biodistribution of the labeled compound in mice spleen 180 min after post-injection; assay type: ADME, organism-based; details: mouse, in vivo, 3 h
[16] = Biodistribution of the labeled compound in mice stomach 30 min after post-injection; assay type: ADME, organism-based; details: mouse, in vivo, 0.5 h
[17] = Biodistribution of the labeled compound in mice stomach 60 min after post-injection; assay type: ADME, organism-based; details: mouse, in vivo, 1 h
[18] = Biodistribution of the labeled compound in mice bone 30 min after post-injection; assay type: ADME, organism-based, Bone element; details: mouse, in vivo, 0.5 h
[19] = Biodistribution of the labeled compound in mice bone 60 min after post-injection; assay type: ADME, organism-based, Bone element; details: mouse, in vivo, 1 h
[20] = Biodistribution of the labeled compound in mice blood 30 min after post-injection; assay type: ADME, organism-based; details: mouse, in vivo, 0.5 h
[21] = Biodistribution of the labeled compound in mice blood 60 min after post-injection; assay type: ADME, organism-based; details: mouse, in vivo, 1 h
[22] = Biodistribution of the labeled compound in mice bone 180 min after post-injection; assay type: ADME, organism-based, Bone element; details: mouse, in vivo, 3 h
[23] = Biodistribution of the labeled compound in mice heart 30 min after post-injection; assay type: ADME, organism-based; details: mouse, in vivo, 0.5 h
[24] = Biodistribution of the labeled compound in mice heart 60 min after post-injection; assay type: ADME, organism-based; details: mouse, in vivo, 1 h
[25] = Biodistribution of the labeled compound in mice liver 60 min after post-injection; assay type: ADME, organism-based; details: mouse, in vivo, 1 h
[26] = Biodistribution of the labeled compound in mice lungs 30 min after post-injection; assay type: ADME, organism-based, Lung; details: mouse, in vivo, 0.5 h
[27] = Biodistribution of the labeled compound in mice lungs 60 min after post-injection; assay type: ADME, organism-based, Lung; details: mouse, in vivo, 1 h
[28] = Biodistribution of the labeled compound in mice Muscle 30 min after post-injection; assay type: ADME, organism-based, Muscle tissue; details: mouse, in vivo, 0.5 h
[29] = Biodistribution of the labeled compound in mice blood 180 min after post-injection; assay type: ADME, organism-based; details: mouse, in vivo, 3 h
[30] = Biodistribution of the labeled compound in mice heart 180 min after post-injection; assay type: ADME, organism-based; details: mouse, in vivo, 3 h
[31] = Biodistribution of the labeled compound in mice int+GB 60 min after post-injection; assay type: ADME, organism-based; details: mouse, in vivo, 1 h
[32] = Biodistribution of the labeled compound in mice kidney 30 min after post-injection; assay type: ADME, organism-based; details: mouse, in vivo, 0.5 h
[33] = Biodistribution of the labeled compound in mice stomach 180 min after post-injection; assay type: ADME, organism-based; details: mouse, in vivo, 3 h
[34] = Biodistribution of the labeled compound in mice tumor 60 min after post-injection at adose 1.44 g; assay type: ADME, organism-based; details: mouse, in vivo, 1 h
[35] = Biodistribution of the labeled compound in mice tumor 180 min after post-injection at adose 1.36 g; assay type: ADME, organism-based; details: mouse, in vivo, 3 h
[36] = Biodistribution of the labeled compound in mice tumor 30 min after post-injection at a dose of 1.42 g; assay type: ADME, organism-based; details: mouse, in vivo, 0.5 h
[37] = Biodistribution of the labeled compound in mice muscle 60 min after post-injection; assay type: ADME, organism-based, Muscle tissue; details: mouse, in vivo, 1 h
Mus musculus [38] = species on record: Mus musculus; test: Tumor/blood ratio of the label compound in mice 180 min after post injection; assay type: functional
[39] = Biodistribution of the labeled compound in mice liver 30 min after post-injection; assay type: ADME, organism-based; details: mouse, in vivo, 0.5 h

Compound: Cc1ncc([N+](=O)[O-])n1CCOC(=S)[S-].[Na+] [METRONIDAZOLE XANTHATE]
- Ratio (Mus musculus [1]): 0.2
- Ratio (Mus musculus [2]): 0.36
- Ratio (Mus musculus [3]): 1.19
- Ratio (Mus musculus [4]): 2.15
- Ratio (Mus musculus [5]): 3.35
- Biodistribution [6]: 3.18
- Biodistribution [7]: 18.37
- Biodistribution [8]: 0.75
- Biodistribution [9]: 0.25
- Biodistribution [10]: 0.34
- Biodistribution [11]: 12.46
- Biodistribution [12]: 32.52
- Biodistribution [13]: 2.87
- Biodistribution [14]: 4.2
- Biodistribution [15]: 0.27
- Biodistribution [16]: 1.68
- Biodistribution [17]: 0.74
- Biodistribution [18]: 2.59
- Biodistribution [19]: 2.43
- Biodistribution [20]: 11.45
- Biodistribution [21]: 6.75
- Biodistribution [22]: 2.27
- Biodistribution [23]: 0.38
- Biodistribution [24]: 0.27
- Biodistribution [25]: 23.53
- Biodistribution [26]: 1.59
- Biodistribution [27]: 1.09
- Biodistribution [28]: 11.19
- Biodistribution [29]: 3.95
- Biodistribution [30]: 0.27
- Biodistribution [31]: 20.19
- Biodistribution [32]: 4.25
- Biodistribution [33]: 0.71
- Biodistribution [34]: 0.43
- Biodistribution [35]: 0.41
- Biodistribution [36]: 0.4
- Biodistribution [37]: 6.43
- Ratio (Mus musculus [38]): 0.62
- Biodistribution [39]: 29.32
